Experimental data reported in the supplement of paper PMC10307832.

Assays:
Experiment in all cases: relative viability (nuclei count vs DMSO), 5 days (fraction); higher = more cells survive
Linifanib + Linsitinib = compound: Cc1ccc(F)c(NC(=O)Nc2ccc(-c3cccc4[nH]nc(N)c34)cc2)c1 [Linifanib] + C[C@]1(O)C[C@@H](c2nc(-c3ccc4ccc(-c5ccccc5)nc4c3)c3c(N)nccn32)C1 [Linsitinib] (partner 1 µM)
Procedure, shortened: (§1)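 A single step with final 0.05% Triton X-100, 1% formaldehyde and 1 ug/ml Hoechst fixed the cells and stained nuclei 5 days after treatment. Lung cancer cell lines in 1536-well plates had been treated by pin tool the day after seeding with one drug alone or a fixed anchor-drug dose plus five library-drug doses (not always all listed) in √10 steps, and nuclei were counted on 4× images. Relative viability is the ratio of nuclei in treated wells to nuclei in vehicle wells, taken as the median of duplicate plates.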

Linifanib + Olaparib = compound: Cc1ccc(F)c(NC(=O)Nc2ccc(-c3cccc4[nH]nc(N)c34)cc2)c1 [Linifanib] + O=C(c1cc(Cc2n[nH]c(=O)c3ccccc23)ccc1F)N1CCN(C(=O)C2CC2)CC1 [Olaparib] (partner 8 µM)
Procedure, shortened: as §1

Linifanib + Decitabine = compound: Cc1ccc(F)c(NC(=O)Nc2ccc(-c3cccc4[nH]nc(N)c34)cc2)c1 [Linifanib] + Nc1ncn([C@H]2C[C@H](O)[C@@H](CO)O2)c(=O)n1 [Decitabine] (partner 2 µM)
Procedure, shortened: as §1

Linifanib + Foretinib = compound: Cc1ccc(F)c(NC(=O)Nc2ccc(-c3cccc4[nH]nc(N)c34)cc2)c1 [Linifanib] + COc1cc2c(Oc3ccc(NC(=O)C4(C(=O)Nc5ccc(F)cc5)CC4)cc3F)ccnc2cc1OCCCN1CCOCC1 [Foretinib] (partner 0.25 µM)
Procedure, shortened: as §1

Linifanib + Pictilisib = compound: Cc1ccc(F)c(NC(=O)Nc2ccc(-c3cccc4[nH]nc(N)c34)cc2)c1 [Linifanib] + CS(=O)(=O)N1CCN(Cc2cc3nc(-c4cccc5[nH]ncc45)nc(N4CCOCC4)c3s2)CC1 [Pictilisib] (partner 1 µM)
Procedure, shortened: as §1

Linifanib + Alpelisib = compound: Cc1ccc(F)c(NC(=O)Nc2ccc(-c3cccc4[nH]nc(N)c34)cc2)c1 [Linifanib] + Cc1nc(NC(=O)N2CCC[C@H]2C(N)=O)sc1-c1ccnc(C(C)(C)C(F)(F)F)c1 [Alpelisib] (partner 2 µM)
Procedure, shortened: as §1

Linifanib + Lapatinib = compound: Cc1ccc(F)c(NC(=O)Nc2ccc(-c3cccc4[nH]nc(N)c34)cc2)c1 [Linifanib] + CS(=O)(=O)CCNCc1ccc(-c2ccc3ncnc(Nc4ccc(OCc5cccc(F)c5)c(Cl)c4)c3c2)o1 [Lapatinib] (partner 2 µM)
Procedure, shortened: as §1

Linifanib + Phenformin = compound: Cc1ccc(F)c(NC(=O)Nc2ccc(-c3cccc4[nH]nc(N)c34)cc2)c1 [Linifanib] + N=C(N)NC(=N)NCCc1ccccc1 [Phenformin] (partner 250 µM)
Procedure, shortened: as §1

Linifanib + Crizotinib = compound: Cc1ccc(F)c(NC(=O)Nc2ccc(-c3cccc4[nH]nc(N)c34)cc2)c1 [Linifanib] + C[C@@H](Oc1cc(-c2cnn(C3CCNCC3)c2)cnc1N)c1c(Cl)ccc(F)c1Cl [Crizotinib] (partner 1 µM)
Procedure, shortened: as §1

Linifanib + Navitoclax = compound: Cc1ccc(F)c(NC(=O)Nc2ccc(-c3cccc4[nH]nc(N)c34)cc2)c1 [Linifanib] + CC1(C)CCC(c2ccc(Cl)cc2)=C(CN2CCN(c3ccc(C(=O)NS(=O)(=O)c4ccc(N[C@H](CCN5CCOCC5)CSc5ccccc5)c(S(=O)(=O)C(F)(F)F)c4)cc3)CC2)C1 [Navitoclax] (partner 0.5 µM)
Procedure, shortened: as §1

Linifanib = compound: Cc1ccc(F)c(NC(=O)Nc2ccc(-c3cccc4[nH]nc(N)c34)cc2)c1 [Linifanib]
Procedure, shortened: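 Viability here means nuclei in treated wells divided by nuclei in vehicle wells, reported as the median across plates. Only plates with control CV below 25% and at least one doubling passed. Lung cancer cell lines in 1536-well plates were exposed to five √10-spaced library-drug doses for 5 days and counted from 4× Hoechst images in MetaXpress.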

Linifanib + Trametinib = compound: Cc1ccc(F)c(NC(=O)Nc2ccc(-c3cccc4[nH]nc(N)c34)cc2)c1 [Linifanib] + CC(=O)Nc1cccc(-n2c(=O)n(C3CC3)c(=O)c3c(Nc4ccc(I)cc4F)n(C)c(=O)c(C)c32)c1 [Trametinib] (partner 0.02 µM)
Procedure, shortened: as §1

Linifanib + Vorinostat = compound: Cc1ccc(F)c(NC(=O)Nc2ccc(-c3cccc4[nH]nc(N)c34)cc2)c1 [Linifanib] + O=C(CCCCCCC(=O)Nc1ccccc1)NO [Vorinostat] (partner 1 µM)
Procedure, shortened: as §1

Linifanib + Pemetrexed = compound: Cc1ccc(F)c(NC(=O)Nc2ccc(-c3cccc4[nH]nc(N)c34)cc2)c1 [Linifanib] + Nc1nc2[nH]cc(CCc3ccc(C(=O)N[C@@H](CCC(=O)O)C(=O)O)cc3)c2c(=O)[nH]1 [Pemetrexed] (partner 0.2 µM)
Procedure, shortened: as §1

Linifanib + Tozasertib = compound: Cc1ccc(F)c(NC(=O)Nc2ccc(-c3cccc4[nH]nc(N)c34)cc2)c1 [Linifanib] + Cc1cc(Nc2cc(N3CCN(C)CC3)nc(Sc3ccc(NC(=O)C4CC4)cc3)n2)n[nH]1 [Tozasertib] (partner 0.1 µM)
Procedure, shortened: as §1

Linifanib + OSI-027 = compound: Cc1ccc(F)c(NC(=O)Nc2ccc(-c3cccc4[nH]nc(N)c34)cc2)c1 [Linifanib] + COc1cccc2cc(-c3nc([C@H]4CC[C@H](C(=O)O)CC4)n4ncnc(N)c34)[nH]c12 [OSI-027] (partner 0.5 µM)
Procedure, shortened: as §1

Linifanib + AZD7762 = compound: Cc1ccc(F)c(NC(=O)Nc2ccc(-c3cccc4[nH]nc(N)c34)cc2)c1 [Linifanib] + NC(=O)Nc1cc(-c2cccc(F)c2)sc1C(=O)N[C@H]1CCCNC1 [AZD7762] (partner 0.2 µM)
Procedure, shortened: as §1

Linifanib + Palbociclib = compound: Cc1ccc(F)c(NC(=O)Nc2ccc(-c3cccc4[nH]nc(N)c34)cc2)c1 [Linifanib] + CC(=O)c1c(C)c2cnc(Nc3ccc(N4CCNCC4)cn3)nc2n(C2CCCC2)c1=O [Palbociclib] (partner 0.5 µM)
Procedure, shortened: as §1

Linifanib + Bortezomib = compound: Cc1ccc(F)c(NC(=O)Nc2ccc(-c3cccc4[nH]nc(N)c34)cc2)c1 [Linifanib] + CC(C)C[C@H](NC(=O)[C@H](Cc1ccccc1)NC(=O)c1cnccn1)B(O)O [Bortezomib] (partner 0.002 µM)
Procedure, shortened: as §1

Cell Line	relative viability (Linifanib + Linsitinib; first compound 0.03162 µM)	relative viability (Linifanib + Linsitinib; first compound 0.1 µM)	relative viability (Linifanib + Linsitinib; first compound 0.3162 µM)	relative viability (Linifanib + Olaparib; first compound 0.03162 µM)	relative viability (Linifanib + Olaparib; first compound 0.1 µM)	relative viability (Linifanib + Olaparib; first compound 0.3162 µM)	relative viability (Linifanib + Decitabine; first compound 0.03162 µM)	relative viability (Linifanib + Decitabine; first compound 0.3162 µM)	relative viability (Linifanib + Foretinib; first compound 0.03162 µM)	relative viability (Linifanib + Foretinib; first compound 0.1 µM)	relative viability (Linifanib + Foretinib; first compound 0.3162 µM)	relative viability (Linifanib + Pictilisib; first compound 0.03162 µM)	relative viability (Linifanib + Pictilisib; first compound 0.1 µM)	relative viability (Linifanib + Pictilisib; first compound 0.3162 µM)	relative viability (Linifanib + Alpelisib; first compound 0.03162 µM)	relative viability (Linifanib + Alpelisib; first compound 0.1 µM)	relative viability (Linifanib + Alpelisib; first compound 0.3162 µM)	relative viability (Linifanib; 0.03162 µM)	relative viability (Linifanib; 0.1 µM)	relative viability (Linifanib; 0.3162 µM)	other results
A549	0.583	0.716	0.638	0.369	0.535	0.305	0.285	0.374	0.972	0.922	0.808	0.399	0.515	0.49	0.885	0.948	0.647	1.01	1.05	0.996	relative viability (Linifanib + Decitabine; first compound 0.1 µM): 0.309; relative viability (Linifanib + Lapatinib; first compound 0.03162 µM): 0.974; relative viability (Linifanib + Lapatinib; first compound 0.1 µM): 1.06; relative viability (Linifanib + Lapatinib; first compound 0.3162 µM): 0.929; relative viability (Linifanib + Phenformin; first compound 0.03162 µM): 0.197; relative viability (Linifanib + Phenformin; first compound 0.1 µM): 0.215; relative viability (Linifanib + Phenformin; first compound 0.3162 µM): 0.159; relative viability (Linifanib + Crizotinib; first compound 0.03162 µM): 0.795; relative viability (Linifanib + Crizotinib; first compound 0.1 µM): 0.907; relative viability (Linifanib + Crizotinib; first compound 0.3162 µM): 0.726; relative viability (Linifanib + Navitoclax; first compound 0.03162 µM): 1.18; relative viability (Linifanib + Navitoclax; first compound 0.1 µM): 1.28; relative viability (Linifanib + Navitoclax; first compound 0.3162 µM): 1.09
NCI-H1648	–	–	–	0.847	–	1.11	0.5	0.45	–	–	–	–	–	–	–	–	–	0.847	0.688	1.08	relative viability (Linifanib + Trametinib; first compound 0.03162 µM): 0.469; relative viability (Linifanib + Trametinib; first compound 0.3162 µM): 0.461; relative viability (Linifanib + Vorinostat; first compound 0.03162 µM): 0.491; relative viability (Linifanib + Vorinostat; first compound 0.3162 µM): 0.412; relative viability (Linifanib + Pemetrexed; first compound 0.03162 µM): 0.716; relative viability (Linifanib + Pemetrexed; first compound 0.3162 µM): 0.654; relative viability (Linifanib + Tozasertib; first compound 0.03162 µM): 0.433; relative viability (Linifanib + Tozasertib; first compound 0.1 µM): 0.441; relative viability (Linifanib + Tozasertib; first compound 0.3162 µM): 0.422; relative viability (Linifanib + OSI-027; first compound 0.03162 µM): 0.26; relative viability (Linifanib + OSI-027; first compound 0.1 µM): 0.229; relative viability (Linifanib + OSI-027; first compound 0.3162 µM): 0.263; relative viability (Linifanib + AZD7762; first compound 0.03162 µM): 0.755; relative viability (Linifanib + AZD7762; first compound 0.3162 µM): 0.509; relative viability (Linifanib + Palbociclib; first compound 0.03162 µM): 0.234; relative viability (Linifanib + Palbociclib; first compound 0.3162 µM): 0.269
EBC-1	0.996	0.864	0.731	0.698	0.757	0.73	–	–	0.115	0.103	0.112	0.372	0.486	0.477	0.809	1.06	0.791	1.02	1.14	0.969	relative viability (Linifanib + Bortezomib; first compound 0.03162 µM): 0.551; relative viability (Linifanib + Bortezomib; first compound 0.1 µM): 0.628; relative viability (Linifanib + Bortezomib; first compound 0.3162 µM): 0.574; relative viability (Linifanib + Lapatinib; first compound 0.03162 µM): 0.207; relative viability (Linifanib + Lapatinib; first compound 0.1 µM): 0.21; relative viability (Linifanib + Lapatinib; first compound 0.3162 µM): 0.214; relative viability (Linifanib + Crizotinib; first compound 0.03162 µM): 0.205; relative viability (Linifanib + Crizotinib; first compound 0.1 µM): 0.208; relative viability (Linifanib + Crizotinib; first compound 0.3162 µM): 0.224; relative viability (Linifanib + Navitoclax; first compound 0.03162 µM): 0.472; relative viability (Linifanib + Navitoclax; first compound 0.1 µM): 0.412; relative viability (Linifanib + Navitoclax; first compound 0.3162 µM): 0.387
